In general, viability refers to the share of living cells, or the viability signal relative to a control. Low values mean a greater loss of cells, high ones better survival. Broadly, the IC50 is the concentration that gives 50% inhibition. The low end stands for inhibition by little substance, the high end for a need for much substance.

≈ marks a conversion by molar mass, not a printed value. Where two headings read alike, the source gives them in different places.

This is an account of results in PMC8950151, “Synthesis and Evaluation of the Antifungal and Toxicological Activity of Nitrofuran Derivatives” (Pharmaceutics, 2022).

The subject of data set [1] is Histoplasma capsulatum (G217-B/ATCC 26032). The data set is described as follows: microbe, parasite or virus in culture. Particulars: ATCC26032, 144 h. It counts as cell-based.
For data set [2], the system named is C. krusei (ATCC 6258). Kind of data set: Susceptibility test (CLSI M27-A3 broth microdilution, resazurin readout), MIC90. Format: cell-based, Candida krusei. Particulars: Pichia kudriavzevii, ATCC6258, 24 h. For orientation: Broth dilution looks for growth in wells or tubes with falling amounts of substance.
Data set [3] deals with Cryptococcus neoformans (H99/ATCC 208821). The description is as above. It counts as cell-based. Particulars: ATCC208821, 48 h.
Data set [4] concerns Trichophyton mentagrophytes (ATCC 11481). Kind of data set: Minimum fungicidal concentration (MFC). It counts as cell-based. The settings on record: T. mentagrophytes; for MFC: Trichophyton mentagrophytes, ATCC11481.
For data set [5] the test system is unchanged. The data set is described as follows: Susceptibility assay for dermatophytes (CLSI M38-A2, resazurin), MIC90. Format: cell-based. Particulars: Trichophyton mentagrophytes, ATCC11481, 96 h, T. mentagrophytes, 35 °C, read-out: MIC90. (Resazurin is reduced to fluorescent resorufin, in cell work by metabolically active cells.)
Data set [6] concerns Paracoccidioides brasiliensis (Pb 18). The data set is described as follows: microbe, parasite or virus in culture. Format: cell-based. The settings on record: for MFC: Paracoccidioides brasiliensis.
For data set [7], the system named is T. rubrum (ATCC 28289). The data set is described as follows: Minimum fungicidal concentration (MFC). Particulars: Trichophyton rubrum, ATCC28289. It counts as cell-based, Trichophyton rubrum.
For data set [8], the system named is Candida albicans (ATCC 90028). Kind of data set: Minimum fungicidal concentration (MFC). It counts as cell-based. The settings on record: ATCC90028, C. albicans.
The subject of data set [9] is Cryptococcus neoformans (H99/ATCC 208821). The data set is described as follows: Minimum fungicidal concentration (MFC). Format: cell-based. The settings on record: ATCC208821, C. neoformans.
In data set [10] the test system is Histoplasma capsulatum (G217-B/ATCC 26032). Kind of data set: microbe, parasite or virus in culture. Format: cell-based. The settings on record: ATCC26032.
Data set [11] can be described thus: in vivo. The settings on record: AU37 [glp-4 (bn2) I, sek-1 (km4) X], Caenorhabditis elegans, C. elegans larvae viability. As to the method:
The experiments were carried out with the mutant strain (AU37 [glp-4 (bn2) I; […]]). The strain was maintained on plates containing nematode growth medium (NGM) seeded with Escherichia coli OP50 at 16 °C. The stage of synchronization of young adults at stage L4 was performed for the toxicity test. About 20 larvae were transferred to each well of 96-well plates containing 100 μL of a medium composed of 60% of 50 mM NaCl; 40% BHI broth; 10 mg/mL cholesterol in ethanol; 200 mg/mL ampicillin and 90 mg/mL kanamycin. Then, 100 μL of dilutions of nitrofuran derivatives (showing the best selectivity index against the fungal species) were added. […] Plates were incubated at 25 °C for 24 h. Survival was assessed by the mobility and shape of the nematode (stick-shaped larvae were considered dead, while sinusoidal larvae were considered alive) under an inverted optical microscope on 40× objective lenses.

Data set [12] concerns C. glabrata (ATCC 90030). Kind of data set: Susceptibility test (CLSI M27-A3 broth microdilution, resazurin readout), MIC90. Particulars: Nakaseomyces glabratus, ATCC90030, 24 h, 37 °C. Format: cell-based, Candida glabrata.
The subject of data set [13] is T. rubrum (ATCC 28289). The data set is described as follows: Susceptibility assay for dermatophytes (CLSI M38-A2, resazurin), MIC90. It counts as cell-based. Particulars: Trichophyton rubrum, ATCC28289, 96 h, 35 °C.
Data set [14] in a line: in vitro. The settings on record: human.
Data set [15] relates to C. krusei (ATCC 6258). The data set is described as follows: Minimum fungicidal concentration (MFC). It counts as cell-based, Candida krusei. Particulars: Pichia kudriavzevii, ATCC6258.
Data set [16] has as its system C. glabrata (ATCC 90030). Kind of data set: Minimum fungicidal concentration (MFC). Format: cell-based, Candida glabrata. The settings on record: Nakaseomyces glabratus, ATCC90030.
The subject of data set [17] is Candida albicans (ATCC 90028). The data set is described as follows: Susceptibility test (CLSI M27-A3 broth microdilution, resazurin readout), MIC90. Format: cell-based. Particulars: ATCC90028, C. albicans, 24 h, 37 °C.
For data set [18], the system named is A549 (ATCC CCL-185) lung epithelial cell line. Kind of data set: Cytotoxicity assay in monolayer by resazurin colorimetric method. Particulars: Homo sapiens, A549 cells, 72 h. Format: cell-based.
The subject of data set [19] is Candida species. The data set is described as follows: Susceptibility test (CLSI M27-A3), MIC90, stated for Candida species together. Format: cell-based. The settings on record: read-out: MIC90 against Candida species, Candida species (C. albicans, C. krusei, C. glabrata) taken together.

As to `O=C(NCCCc1ccccc1)c1ccc([N+](=O)[O-])o1` [Compound 5], the MIC90 in data set [1] stood at 1.95 µg/mL (≈ 7.11 µM); in data set [2], 62.5 µg/mL (≈ 228 µM); in data set [3] it was 7.81 µg/mL (≈ 28.5 µM); in data set [5] it was 31.2 µg/mL (≈ 114 µM); in [12] it was 125 µg/mL (≈ 456 µM); in data set [13] it was 15.7 µg/mL (≈ 57.1 µM). Also, the MIC90 in data set [17] is 125 µg/mL (≈ 456 µM). Further, the MIC in [3] (read-out: MIC90) stood at 3.9 µg/mL (≈ 14.2 µM). In addition, the MFC in [4] was found to be 62.5 µg/mL (≈ 228 µM); in data set [6] it was 31.2 µg/mL (≈ 114 µM); in [7] it was 31.2 µg/mL (≈ 114 µM); in data set [8], 250 µg/mL (≈ 911 µM); in data set [9], 15.6 µg/mL (≈ 56.9 µM); in data set [10], 1.95 µg/mL (≈ 7.11 µM). The MFC in [15] worked out at 62.5 µg/mL (≈ 228 µM); in data set [16], 125 µg/mL (≈ 456 µM). Moreover, the viability at 24 h, 250 µg/mL in data set [11] stood at 85.7%. The IC50 in data set [14] was found to be 39.8 µg/mL (≈ 145 µM); in data set [18] it was 30.1 µg/mL (≈ 110 µM).

For `O=C(/C=C/c1ccc([N+](=O)[O-])o1)c1ccc(Br)cc1` [Compound 11], the MIC90 in [1] is 0.48 µg/mL (≈ 1.49 µM); in [2], 250 µg/mL (≈ 776 µM); in [3], ≥ 250 µg/mL; in [5], 7.8 µg/mL (≈ 24.2 µM); in data set [12] it was 250 µg/mL (≈ 776 µM); in data set [13], 7.8 µg/mL (≈ 24.2 µM). In [17], this compound returned an MIC90 of 125 µg/mL (≈ 388 µM). Moreover, the MFC was 7.8 µg/mL (≈ 24.2 µM) in [4]; 0.98 µg/mL (≈ 3.04 µM) in data set [6]; 15.6 µg/mL (≈ 48.4 µM) in data set [7]; 250 µg/mL (≈ 776 µM) in data set [8]; ≥ 250 µg/mL in data set [9]; 0.48 µg/mL (≈ 1.49 µM) in [10]. In addition, the MFC was > 250 µg/mL in [15] and > 250 µg/mL in data set [16] (C. glabrata, read-out: MFC). The same compound yielded a viability at 24 h, 250 µg/mL in [11] of 80%. In addition, the IC50 in [14] is 62.6 µg/mL (≈ 194 µM); in data set [18] it was 12.2 µg/mL (≈ 38 µM).

As for `O=C(/C=C/c1ccccc1)OCc1ccc([N+](=O)[O-])o1` [Compound 1], the MIC90 is > 250 µg/mL in [1]; 31.2 µg/mL (≈ 114 µM) in [2]; 31.2 µg/mL (≈ 114 µM) in [3]; 15.6 µg/mL (≈ 57.1 µM) in data set [5]; 3.9 µg/mL (≈ 14.3 µM) in data set [19]; 7.81 µg/mL (≈ 28.6 µM) in data set [12]. In addition, the MIC90 in data set [13] is > 250 µg/mL; in data set [17] it was 3.9 µg/mL (≈ 14.3 µM). Moreover, the MFC in data set [4] is 15.6 µg/mL (≈ 57.1 µM); in data set [6], 62.5 µg/mL (≈ 229 µM); in [7] it was > 250 µg/mL; in data set [8] it was 125 µg/mL (≈ 457 µM); in data set [9] it was 31.2 µg/mL (≈ 114 µM); in data set [10], > 250 µg/mL. For the same compound, the MFC in data set [15] is 31.2 µg/mL (≈ 114 µM); in data set [16] (C. glabrata, read-out: MFC), > 250 µg/mL. Moreover, the “fungistatic / fungicidal profile” value in [6] was “fungistatic profile”. In addition, the viability at 24 h, 250 µg/mL in data set [11] was > 94%. Further, the half-maximal inhibitory concentration (IC50) in [14] was 240 µg/mL (≈ 880 µM); in data set [18] it was 250 µg/mL (≈ 915 µM).

On to `O=C(NCCc1ccccn1)c1ccc([N+](=O)[O-])o1` [Compound 3, 5-nitro-N-(2-(pyridin-2-yl)ethyl)furan-2-carboxamide], for which the MIC90 was 3.9 µg/mL (≈ 14.9 µM) in [1]; 250 µg/mL (≈ 957 µM) in data set [2]; 31.2 µg/mL (≈ 120 µM) in data set [3]; 62.5 µg/mL (≈ 239 µM) in data set [5]; > 250 µg/mL in data set [12]; 125 µg/mL (≈ 478 µM) in data set [13]. The MIC90 in [17] was > 250 µg/mL. The “fungistatic / fungicidal profile” value in data set [4] (MFC versus MIC90) is given as “fungistatic profile”. Besides, the MFC was 250 µg/mL (≈ 957 µM) in data set [4]; 0.98 µg/mL (≈ 3.75 µM) in [6]; 125 µg/mL (≈ 478 µM) in data set [7]; > 250 µg/mL in data set [8]; 62.5 µg/mL (≈ 239 µM) in [9]; 3.9 µg/mL (≈ 14.9 µM) in data set [10]. The MFC is > 250 µg/mL in data set [15] and > 250 µg/mL in data set [16] (C. glabrata, read-out: MFC). In data set [11], this compound displayed a viability at 24 h, 250 µg/mL of 82.5%. Also, the half-inhibitory concentration (IC50) in data set [14] is 250 µg/mL (≈ 957 µM); in [18], 231 µg/mL (≈ 885 µM).
